Read-outs that look alike come from different tables or passages of the source.
Experiments:
Experiment in all cases: 72-hour CellTiter-Glo 2.0 growth inhibition screen (single agent, 9x9 combination dose matrix);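 for Best CI Level: inhibition effect level at which the best CI was calculated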
Type in all cases: cell-based
HCC44 = tested on: HCC44;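 for Best CI Level: inhibition effect level at which the best CI was calculated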
NCI-H358 = tested on: NCI-H358;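 for Best CI Level: inhibition effect level at which the best CI was calculated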
TOV-21G = tested on: TOV-21G;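 for Best CI Level: inhibition effect level at which the best CI was calculated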
Gp2D = tested on: Gp2D;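 for Best CI Level: inhibition effect level at which the best CI was calculated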
NCI-H1373 = conditions: for Emax: NCI-H1373
[1] = HCC44, Lung, Additional Single Agent Responses (inhibition, % I), 72 h
[2] = HCC44, Lung, growth inhibition (GI) curve, single agent, 72 h
[3] = HCC44, Lung, growth inhibition (GI), AUC, single agent, 72 h
[4] = NCl-H358, Lung, Additional Single Agent Responses (inhibition, % I), 72 h
[5] = NCl-H358, Lung, growth inhibition (GI) curve, single agent, 72 h
[6] = NCl-H358, Lung, growth inhibition (GI), AUC, single agent, 72 h
[7] = TOV-21G, Ovary, Additional Single Agent Responses (inhibition, % I), 72 h
[8] = TOV-21G, Ovary, growth inhibition (GI) curve, single agent, 72 h
[9] = TOV-21G, Ovary, growth inhibition (GI), AUC, single agent, 72 h
[10] = Gp2D, Colorectal, Additional Single Agent Responses (inhibition, % I), 72 h
[11] = Gp2D, Colorectal, growth inhibition (GI) curve, single agent, 72 h
[12] = Gp2D, Colorectal, growth inhibition (GI), AUC, single agent, 72 h
[13] = NCl-H1373, Lung, Additional Single Agent Responses (inhibition, % I), 72 h
[14] = NCl-H1373, Lung, growth inhibition (GI) curve, single agent, 72 h
[15] = NCl-H1373, Lung, growth inhibition (GI), AUC, single agent, 72 h
[16] = HCC44 (KRAS G12C), enhancer + MEI-522 (Voruciclib), 72 h;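 for Best CI Level: inhibition effect level at which the best CI was calculated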
[17] = enhancer combined with MEI-522 (Voruciclib), HCC44 (Lung), 72 hours, inhibition data
[18] = NCl-H358 (KRAS G12C), enhancer + MEI-522 (Voruciclib), 72 h
[19] = enhancer combined with MEI-522 (Voruciclib), NCl-H358 (Lung), 72 hours, inhibition data
[20] = TOV-21G (KRAS G13C), enhancer + MEI-522 (Voruciclib), 72 h;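 for Best CI Level: inhibition effect level at which the best CI was calculated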
[21] = enhancer combined with MEI-522 (Voruciclib), TOV-21G (Ovary), 72 hours, inhibition data
[22] = Gp2D (KRAS G12D), enhancer + MEI-522 (Voruciclib), 72 h;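 for Best CI Level: inhibition effect level at which the best CI was calculated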
[23] = enhancer combined with MEI-522 (Voruciclib), Gp2D (Colorectal), 72 hours, inhibition data
[24] = NCl-H1373 (KRAS G12C), enhancer + MEI-522 (Voruciclib), 72 h
[25] = enhancer combined with MEI-522 (Voruciclib), NCl-H1373 (Lung), 72 hours, inhibition data

CN1CC[C@@H](c2c(O)cc(O)c3c(=O)cc(-c4ccc(C(F)(F)F)cc4Cl)oc23)[C@@H]1CO [MEI-522(Voruciclib)]
EC50 (HCC44; [1]): 770 nM
IC50 (HCC44; [1]): 829 nM
Response Area (HCC44; [1]): 2.85
Max Response (% I) (HCC44; HCC44, Lung, Additional Single Agent Responses, 72 h): 91 % I
EC50 (HCC44; [2]): 1210 nM
GI50 (HCC44; [2]): 730 nM
Response Area (HCC44; [3]): 4.97
Max Response (% GI) (HCC44; HCC44, Lung, growth inhibition (GI), single agent, 72 h): 161 % GI
EC50 (NCI-H358; [4]): 591 nM
IC50 (NCI-H358; [4]): 628 nM
Response Area (NCI-H358; [4]): 2.50
Max Response (% I) (NCI-H358; NCl-H358, Lung, Additional Single Agent Responses, 72 h): 85 % I
EC50 (NCI-H358; [5]): 598 nM
GI50 (NCI-H358; [5]): 585 nM
Response Area (NCI-H358; [6]): 3.61
Max Response (% GI) (NCI-H358; NCl-H358, Lung, growth inhibition (GI), single agent, 72 h): 137 % GI
EC50 (TOV-21G; [7]): 1660 nM
IC50 (TOV-21G; [7]): 1730 nM
Response Area (TOV-21G; [7]): 2.63
Max Response (% I) (TOV-21G; TOV-21G, Ovary, Additional Single Agent Responses, 72 h): 95 % I
EC50 (TOV-21G; [8]): 1980 nM
GI50 (TOV-21G; [8]): 1570 nM
Response Area (TOV-21G; [9]): 4.89
Max Response (% GI) (TOV-21G; TOV-21G, Ovary, growth inhibition (GI), single agent, 72 h): 181 % GI
EC50 (Gp2D; [10]): 747 nM
IC50 (Gp2D; [10]): 791 nM
Response Area (Gp2D; [10]): 2.94
Max Response (% I) (Gp2D; Gp2D, Colorectal, Additional Single Agent Responses, 72 h): 94 % I
EC50 (Gp2D; [11]): 1170 nM
GI50 (Gp2D; [11]): 695 nM
Response Area (Gp2D; [12]): 5.14
Max Response (% GI) (Gp2D; Gp2D, Colorectal, growth inhibition (GI), single agent, 72 h): 176 % GI
EC50 (NCI-H1373; [13]): 1030 nM
IC50 (NCI-H1373; [13]): 1230 nM
Response Area (NCI-H1373; [13]): 2.58
Max Response (% I) (NCI-H1373; NCl-H1373, Lung, Additional Single Agent Responses, 72 h): 86 % I
EC50 (NCI-H1373; [14]): 1390 nM
GI50 (NCI-H1373; [14]): 972 nM
Response Area (NCI-H1373; [15]): 4.24
Max Response (% GI) (NCI-H1373; NCl-H1373, Lung, growth inhibition (GI), single agent, 72 h): 147 % GI

C=CC(=O)N1CCN(c2nc(=O)n(-c3c(C)ccnc3C(C)C)c3nc(-c4c(O)cccc4F)c(F)cc23)[C@@H](C)C1 [AMG510]
Best CI (HCC44; [16]): 0.63
Bliss Volume (HCC44; [16]): 2.46
HSA volume (HCC44; [16]): 2.64
Loewe Volume (HCC44; [16]): 2.30
Synergy Score (HCC44; [16]): 4.36
Response Area (HCC44; [1]): 1.52
Response Area (HCC44; [3]): 1.97
EC50 (HCC44; Homo sapiens, HCC44, 72 h, HCC44, Lung, Additional Single Agent Responses (inhibition, % I), 72 h): 4.1 nM
EC50 (HCC44; Homo sapiens, HCC44, 72 h, HCC44, Lung, growth inhibition (GI) curve, single agent, 72 h): 4.6 nM
Emax (HCC44; Homo sapiens, HCC44, Lung, Additional Single Agent Responses, 72 h, read-out: Max Response (% I)): 32%
Emax (HCC44; Homo sapiens, HCC44, Lung, growth inhibition (GI), single agent, 72 h, read-out: Max Response (% GI)): 41%
Best CI (HCC44; [17]): 0.67
Bliss Volume (HCC44; [17]): −0.82
HSA volume (HCC44; [17]): 1.08
Loewe Volume (HCC44; [17]): 0.97
Synergy Score (HCC44; [17]): 1.16
Best CI Level (HCC44; enhancer combined with MEI-522 (Voruciclib), HCC44 (Lung), 72 hours, inhibition data, unit assumed): 45%
EC50 (NCI-H358; Homo sapiens, NCI-H358, 72 h, NCl-H358, Lung, Additional Single Agent Responses (inhibition, % I), 72 h): 8.5 nM
EC50 (NCI-H358; Homo sapiens, NCI-H358, 72 h, NCl-H358, Lung, growth inhibition (GI) curve, single agent, 72 h): 9.4 nM
IC50 (NCI-H358; Homo sapiens, NCI-H358, NCl-H358, Lung, Additional Single Agent Responses (inhibition, % I), 72 h): 14.2 nM
Emax (NCI-H358; Homo sapiens, NCI-H358, NCl-H358, Lung, Additional Single Agent Responses, 72 h, read-out: Max Response (% I)): 79%
GI50 (NCI-H358; Homo sapiens, NCI-H358, NCl-H358, Lung, growth inhibition (GI) curve, single agent, 72 h): 8.8 nM
Emax (NCI-H358; Homo sapiens, NCI-H358, NCl-H358, Lung, growth inhibition (GI), single agent, 72 h, read-out: Max Response (% GI)): 108%
Best CI (NCI-H358; [18]): 0.51
Bliss Volume (NCI-H358; [18]): 4.55
HSA volume (NCI-H358; [18]): 2.53
Loewe Volume (NCI-H358; [18]): 2.07
Synergy Score (NCI-H358; [18]): 3.63
Response Area (NCI-H358; [4]): 3.87
Response Area (NCI-H358; [6]): 5.18
Best CI (NCI-H358; [19]): 0.51
Best CI Level (NCI-H358; [19]): 20
Bliss Volume (NCI-H358; [19]): −0.42
HSA volume (NCI-H358; [19]): 1.90
Loewe Volume (NCI-H358; [19]): 1.20
Synergy Score (NCI-H358; [19]): 1.07
EC50 (TOV-21G; Homo sapiens, TOV21G, TOV-21G, Ovary, Additional Single Agent Responses (inhibition, % I), 72 h): 3000 nM
Emax (TOV-21G; Homo sapiens, TOV21G, TOV-21G, Ovary, Additional Single Agent Responses, 72 h, read-out: Max Response (% I)): 7%
Emax (TOV-21G; Homo sapiens, TOV21G, TOV-21G, Ovary, growth inhibition (GI), single agent, 72 h, read-out: Max Response (% GI)): 9%
Best CI (TOV-21G; [20]): 0.37
Bliss Volume (TOV-21G; [20]): 2.49
HSA volume (TOV-21G; [20]): −6.11
Loewe Volume (TOV-21G; [20]): −3.64
Synergy Score (TOV-21G; [20]): 0.49
Response Area (TOV-21G; [7]): −0.01
Response Area (TOV-21G; [9]): −0.01
Best CI (TOV-21G; [21]): 0.45
Best CI Level (TOV-21G; [21]): 20
Bliss Volume (TOV-21G; [21]): 2.55
HSA volume (TOV-21G; [21]): −4.28
Loewe Volume (TOV-21G; [21]): −2.46
Synergy Score (TOV-21G; [21]): 0.33
EC50 (Gp2D; GP2d, 72 h, Colorectal, Additional Single Agent Responses (inhibition, % I)): 2560 nM
EC50 (Gp2D; GP2d, 72 h, Colorectal, growth inhibition (GI) curve, single agent): 2550 nM
Best CI (Gp2D; [22]): 0.47
Bliss Volume (Gp2D; [22]): 1.60
HSA volume (Gp2D; [22]): −1.47
Loewe Volume (Gp2D; [22]): 1.40
Synergy Score (Gp2D; [22]): 2.14
Response Area (Gp2D; [10]): 0.42
Emax (Gp2D; Gp2D, Colorectal, Additional Single Agent Responses, 72 h, read-out: Max Response (% I)): 13%
Response Area (Gp2D; [12]): 0.55
Emax (Gp2D; Gp2D, Colorectal, growth inhibition (GI), single agent, 72 h, read-out: Max Response (% GI)): 18%
Best CI (Gp2D; [23]): 0.90
Best CI Level (Gp2D; [23]): 20
Bliss Volume (Gp2D; [23]): 0.54
HSA volume (Gp2D; [23]): −1.21
Loewe Volume (Gp2D; [23]): 0.47
Synergy Score (Gp2D; [23]): 0.43
EC50 (NCI-H1373; Homo sapiens, NCI-H1373, 72 h, NCl-H1373, Lung, Additional Single Agent Responses (inhibition, % I), 72 h): 2.5 nM
EC50 (NCI-H1373; Homo sapiens, NCI-H1373, 72 h, NCl-H1373, Lung, growth inhibition (GI) curve, single agent, 72 h): 2.1 nM
Emax (NCI-H1373; Homo sapiens, NCl-H1373, Lung, Additional Single Agent Responses, 72 h, read-out: Max Response (% I)): 49%
Emax (NCI-H1373; Homo sapiens, NCl-H1373, Lung, growth inhibition (GI), single agent, 72 h, read-out: Max Response (% GI)): 65%
Best CI (NCI-H1373; [24]): 0.28
Bliss Volume (NCI-H1373; [24]): 2.91
HSA volume (NCI-H1373; [24]): 1.67
Loewe Volume (NCI-H1373; [24]): 2.62
Synergy Score (NCI-H1373; [24]): 4.10
Response Area (NCI-H1373; [13]): 2.05
Response Area (NCI-H1373; [15]): 2.56
Best CI (NCI-H1373; [25]): 0.93
Best CI Level (NCI-H1373; [25]): 20
Bliss Volume (NCI-H1373; [25]): −1.68
HSA volume (NCI-H1373; [25]): 0.90
Loewe Volume (NCI-H1373; [25]): 0.62
Synergy Score (NCI-H1373; [25]): 1.25

Reference: patent publication US20240016781A1, “TREATMENT OF KRAS MUTANT CANCERS” (MEI Pharma, Inc., priority 2020, published 2024)
